Test results from BigSolDB 2.1.

CO/N=C(/C(=O)N[C@@H]1C(=O)N2C(C(=O)O)=C(COC(N)=O)CS[C@H]12)c1ccco1
solubility (mole fraction)
Conditions	278.5 K	283.4 K	288.3 K	293.3 K	298.3 K	303.5 K	308.3 K	313.4 K
in acetone	0.00362	0.0036	0.00355	0.00342	0.00337	0.00331	0.00327	0.00324
in ethanol	0.00019	0.00022	0.00028	0.00032	0.00037	0.00052	0.00056	0.00061
in isopropanol	6e-05	9e-05	0.00011	0.00012	0.00012	0.00015	0.00027	0.00032
in water	3e-05	4e-05	4e-05	6e-05	7e-05	0.00012	0.00022	0.00026
